Patent US20220332700A1, “NOVEL APOPTOSIS SIGNAL-REGULATING KINASE 1 INHIBITORS” (MANKIND PHARMA LTD, priority 2019, published 2022)

Tests used:
recombinant ASK1 = target: T1, recombinant ASK1 (Homo sapiens, UniProt Q99683); assay: ASK1 Biochemical Assay (HTRF KinEASE-STK S3); details: ATP 100 μM; read-out: Biochemical Assay IC50
T1 construct: purchased Carna Biosciences
How it was run: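 Recombinant ASK1 (5 ng) preincubated with compound 1 h at 23 °C in MOPS pH 7 buffer with Mg-acetate, DTT, NP40, glycerol, BSA and 1% DMSO. Inhibition calculated against vehicle after substrate-blank subtraction.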

Human ASK1 = target: T2, Human ASK1 (Homo sapiens, UniProt Q99683); assay: ASK1 Cell Based Assay (phospho p38 read out in hASK1 transfected HEK293T-AP1 cells); details: HEK293T-AP1 cells, 1 mM hydrogen peroxide, phospho p38; read-out: Cell Based Assay IC50
T2 construct: expressed in transfected cells; host or cells: HEK293T-AP1
T2 sequence (Q99683 1-1374): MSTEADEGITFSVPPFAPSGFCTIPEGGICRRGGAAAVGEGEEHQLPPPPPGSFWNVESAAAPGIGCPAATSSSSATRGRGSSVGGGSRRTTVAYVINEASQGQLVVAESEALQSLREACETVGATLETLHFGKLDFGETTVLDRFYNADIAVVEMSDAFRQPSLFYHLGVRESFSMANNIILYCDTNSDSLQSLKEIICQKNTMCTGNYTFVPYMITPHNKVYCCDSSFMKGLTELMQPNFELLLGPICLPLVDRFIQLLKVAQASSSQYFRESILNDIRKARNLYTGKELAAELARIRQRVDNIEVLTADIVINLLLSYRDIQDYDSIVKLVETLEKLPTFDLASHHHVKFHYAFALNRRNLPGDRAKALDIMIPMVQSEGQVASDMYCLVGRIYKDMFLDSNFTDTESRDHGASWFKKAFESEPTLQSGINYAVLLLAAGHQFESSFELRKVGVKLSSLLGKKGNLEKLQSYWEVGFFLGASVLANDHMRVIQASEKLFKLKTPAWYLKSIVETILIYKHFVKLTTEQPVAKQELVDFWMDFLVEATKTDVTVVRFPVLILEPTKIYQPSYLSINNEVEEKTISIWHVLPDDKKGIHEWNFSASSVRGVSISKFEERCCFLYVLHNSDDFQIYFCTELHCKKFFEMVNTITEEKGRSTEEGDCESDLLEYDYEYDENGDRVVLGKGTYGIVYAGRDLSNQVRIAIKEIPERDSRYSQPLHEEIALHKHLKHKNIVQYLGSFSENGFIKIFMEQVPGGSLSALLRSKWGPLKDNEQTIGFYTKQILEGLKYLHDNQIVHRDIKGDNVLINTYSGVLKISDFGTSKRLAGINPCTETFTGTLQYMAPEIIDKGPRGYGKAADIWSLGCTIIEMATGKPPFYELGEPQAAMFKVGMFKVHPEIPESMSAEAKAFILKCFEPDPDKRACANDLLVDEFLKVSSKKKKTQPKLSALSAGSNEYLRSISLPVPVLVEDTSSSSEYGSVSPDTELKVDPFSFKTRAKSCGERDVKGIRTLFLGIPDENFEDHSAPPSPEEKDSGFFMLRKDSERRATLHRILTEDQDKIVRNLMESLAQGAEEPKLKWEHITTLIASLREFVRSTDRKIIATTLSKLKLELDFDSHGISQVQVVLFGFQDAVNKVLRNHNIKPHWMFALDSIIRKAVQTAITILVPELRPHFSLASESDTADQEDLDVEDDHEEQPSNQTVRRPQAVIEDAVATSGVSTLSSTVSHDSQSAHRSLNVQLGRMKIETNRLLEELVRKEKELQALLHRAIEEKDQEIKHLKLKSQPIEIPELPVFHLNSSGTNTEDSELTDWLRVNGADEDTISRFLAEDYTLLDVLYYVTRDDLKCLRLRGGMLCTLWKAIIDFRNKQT
Experimental: HEK293T-AP1 cells were seeded at a density of 20,000 cells per well in a poly-d-lysine coated 96 well microplate. Next day, cells were transfected with hASK1-pcDNA3.1 vector using lipofectamine 3000. After 24 hours of transfection, cells were treated with compounds for 24 hours in assay medium. DMSO was used as a vehicle control with a final DMSO concentration of 0.2%. On 4th day, medium was discarded and cells were activated with 1 mM hydrogen peroxide for 1 hour in the presence of compounds. Cells were lysed for 1 hour with 1× lysis buffer on a shaker at 100 rpm. Sixteen microliters of lysate was collected into a 384 well small volume plate. Phospho p38 levels in the lysate was detected by using CisbioPhospho-p38 MAPK (Thr180/Tyr182) #64P38PEG.Four microliters of phospho p38 antibodies labelled with europium cryptate and d2 acceptor, were added to the lysate and incubated overnight. TR-FRET was measured at an excitation of 335 nm and emission was measured at 615 nm and 665 nm in BMG FLUOstar multimode reader.
Compounds were assessed for ASK1 inhibition based on phospho p38 read out. […] Background control values were susbtracted from vehicle control as well as from compound treated wells.

Compound: COc1ccc(N2CCN(c3cccc(-c4nncn4C(C)C)n3)C2=O)cc1 [Example 1039, 1-(6-(4-isopropyl-4H-1,2,4-triazol-3-yl)pyridin-2-yl)-3-(4-methoxyphenyl)imidazolidin-2-one]
- IC50 (recombinant ASK1): < 0.1 µM
- IC50 (Human ASK1): > 1 µM

Compound: CC(C)n1cnnc1-c1cccc(N2CCN(c3ccc(-n4cnc(C5CC5)c4)cc3)C2=O)n1 [Example 1040, 1-(4-(4-cyclopropyl-1H-imidazol-1-yl)phenyl)-3-(6-(4-isopropyl-4H-1,2,4-triazol-3-yl)pyridin-2-yl)imidazolidin-2-one]
- IC50 (recombinant ASK1): < 0.1 µM
- IC50 (Human ASK1): > 10 µM

Compound: CC(C)n1cnnc1-c1cccc(N2CCN(c3ccc(N(C)C)cc3)C2=O)n1 [Example 1041, 1-(4-(dimethylamino)phenyl)-3-(6-(4-isopropyl-4H-1,2,4-triazol-3-yl)pyridin-2-yl)imidazolidin-2-one]
- IC50 (recombinant ASK1): < 0.1 µM
- IC50 (Human ASK1): > 1 µM

Compound: CC(C)n1cnnc1-c1cccc(N2CCN(c3ccc(NS(C)(=O)=O)cc3)C2=O)n1 [Example 1044, N-(4-(3-(6-(4-isopropyl-4H-1,2,4-triazol-3-yl)pyridin-2-yl)-2-oxoimidazolidin-1-yl)phenyl)methanesulfonamide]
- IC50 (recombinant ASK1): < 0.1 µM
- IC50 (Human ASK1): > 1 µM

Compound: CNS(=O)(=O)c1ccc(N2CCN(c3cccc(-c4nncn4C(C)C)n3)C2=O)cc1 [Example 1045, 4-(3-(6-(4-isopropyl-4H-1,2,4-triazol-3-yl)pyridin-2-yl)-2-oxoimidazolidin-1-yl)-N-methylbenzenesulfonamide]
- IC50 (recombinant ASK1): < 0.1 µM
- IC50 (Human ASK1): < 1 µM

Compound: CC(C)n1cnnc1-c1cccc(N2CCN(c3ccc(CS(C)(=O)=O)cc3)C2=O)n1 [Example 1047, 1-(6-(4-isopropyl-4H-1,2,4-triazol-3-yl)pyridin-2-yl)-3-(4-((methylsulfonyl)methyl)phenyl)imidazolidin-2-one]
- IC50 (recombinant ASK1): < 0.1 µM
- IC50 (Human ASK1): > 1 µM

Compound: CC(C)n1cnnc1-c1cccc(N2CCN(c3ccc(C(=O)NC4CC4)cc3)C2=O)n1 [Example 1048, N-cyclopropyl-4-(3-(6-(4-isopropyl-4H-1,2,4-triazol-3-yl)pyridin-2-yl)-2-oxoimidazolidin-1-yl)benzamide]
- IC50 (recombinant ASK1): < 0.1 µM
- IC50 (Human ASK1): > 1 µM

Compound: COCCS(=O)(=O)c1ccc(N2CCN(c3cccc(-c4nncn4C(C)C)n3)C2=O)cc1 [Example 1050, 1-(4-(2-methoxyethylsulfonyl)phenyl)-3-(6-(4-isopropyl-4H-1,2,4-triazol-3-yl)pyridin-2-yl)imidazolidin-2-one]
- IC50 (recombinant ASK1): < 0.1 µM
- IC50 (Human ASK1): > 1 µM

Compound: CC(C)n1cnnc1-c1cccc(N2CCN(c3ccc(C(O)C4CC4)cc3)C2=O)n1 (stereo not drawn) [Example 1051, 1-(4-(cyclopropyl(hydroxy)methyl)phenyl)-3-(6-(4-isopropyl-4H-1,2,4-triazol-3-yl)pyridin-2-yl)imidazolidin-2-one]
- IC50 (recombinant ASK1): < 0.1 µM
- IC50 (Human ASK1): < 1 µM

Compound: CC(C)n1cnnc1-c1cccc(N2CCN(c3ccc(NC(C(N)=O)C4CC4)cc3)C2=O)n1 (stereo not drawn) [Example 1052, 2-(4-(3-(6-(4-isopropyl-4H-1,2,4-triazol-3-yl)pyridin-2-yl)-2-oxoimidazolidin-1-yl)phenylamino)-2-cyclopropylacetamide]
- IC50 (recombinant ASK1): < 0.1 µM
- IC50 (Human ASK1): > 1 µM

Compound: CC(CC#N)n1cnnc1-c1cccc(N2CCN(c3ccc(S(C)(=O)=O)cc3)C2=O)n1 (stereo not drawn) [Example 1053, 3-(3-(6-(3-(4-(methylsulfonyl)phenyl)-2-oxoimidazolidin-1-yl)pyridin-2-yl)-4H-1,2,4-triazol-4-yl)butanenitrile]
- IC50 (recombinant ASK1): < 0.1 µM
- IC50 (Human ASK1): > 1 µM

Compound: COc1cc(S(C)(=O)=O)c(C)cc1N1CCN(c2cccc(-c3nncn3C(C)C)n2)C1=O [Example 1055, 1-(6-(4-isopropyl-4H-1,2,4-triazol-3-yl)pyridin-2-yl)-3-(2-methoxy-5-methyl-4-(methylsulfonyl)phenyl)imidazolidin-2-one]
- IC50 (recombinant ASK1): < 0.1 µM
- IC50 (Human ASK1): > 1 µM

Compound: CC(C)n1cnnc1-c1cccc(N2CCN(c3ccc(NC(C#N)C4CC4)cc3)C2=O)n1 (stereo not drawn) [Example 1056, 2-(4-(3-(6-(4-isopropyl-4H-1,2,4-triazol-3-yl)pyridin-2-yl)-2-oxoimidazolidin-1-yl)phenylamino)-2-cyclopropylacetonitrile]
- IC50 (recombinant ASK1): > 0.1 µM
- IC50 (Human ASK1): > 1 µM

Compound: CC(CO)n1cnnc1-c1cccc(N2CCN(c3ccc(S(C)(=O)=O)cc3)C2=O)n1 (stereo not drawn) [Example 1057, 1-(6-(4-(1-hydroxypropan-2-yl)-4H-1,2,4-triazol-3-yl)pyridin-2-yl)-3-(4-(methylsulfonyl)phenyl)imidazolidin-2-one]
- IC50 (recombinant ASK1): < 0.1 µM
- IC50 (Human ASK1): > 1 µM

Compound: CC(C)n1cnnc1-c1cccc(N2CCN(c3ccc(S(C)(=O)=O)c(C4CC4)c3)C2=O)n1 [Example 1059, 1-(3-cyclopropyl-4-(methylsulfonyl)phenyl)-3-(6-(4-isopropyl-4H-1,2,4-triazol-3-yl)pyridin-2-yl)imidazolidin-2-one]
- IC50 (recombinant ASK1): < 0.1 µM
- IC50 (Human ASK1): > 1 µM

Compound: CC(n1cnnc1-c1cccc(N2CCN(c3ccc(S(C)(=O)=O)cc3)C2=O)n1)C(F)(F)F (stereo not drawn) [Example 1061, 1-(6-(4-(1,1,1-trifluoropropan-2-yl)-4H-1,2,4-triazol-3-yl)pyridin-2-yl)-3-(4-(methylsulfonyl)phenyl)imidazolidin-2-one]
- IC50 (recombinant ASK1): < 0.1 µM
- IC50 (Human ASK1): > 1 µM

Compound: CC(C)n1cnnc1-c1cccc(N2CCN(c3ccc(S(C)(=O)=O)c(N4CCCCC4)c3)C2=O)n1 [Example 1063, 1-(6-(4-isopropyl-4H-1,2,4-triazol-3-yl)pyridin-2-yl)-3-(4-(methylsulfonyl)-3-(piperidin-1-yl)phenyl)imidazolidin-2-one]
- IC50 (recombinant ASK1): < 0.1 µM
- IC50 (Human ASK1): > 1 µM

Compound: CC(C)n1cnnc1-c1cccc(N2CCN(c3ccc(C4CCOCC4)cc3)C2=O)n1 [Example 1066, 1-(4-(tetrahydro-2H-pyran-4-yl)phenyl)-3-(6-(4-isopropyl-4H-1,2,4-triazol-3-yl)pyridin-2-yl)imidazolidin-2-one]
- IC50 (recombinant ASK1): < 0.1 µM
- IC50 (Human ASK1): > 1 µM

Compound: CC(C)n1cnnc1-c1cccc(N2CCN(c3ccc(N4CCC(O)CC4)cc3)C2=O)n1 [Example 1067, 1-(4-(4-hydroxypiperidin-1-yl)phenyl)-3-(6-(4-isopropyl-4H-1,2,4-triazol-3-yl)pyridin-2-yl)imidazolidin-2-one]
- IC50 (recombinant ASK1): < 0.1 µM
- IC50 (Human ASK1): > 0.1 µM

Compound: CC1COCC(=O)N1c1ccc(N2CCN(c3cccc(-c4nncn4C(C)C)n3)C2=O)cc1 (stereo not drawn) [Example 1068, 4-(4-(3-(6-(4-isopropyl-4H-1,2,4-triazol-3-yl)pyridin-2-yl)-2-oxoimidazolidin-1-yl)phenyl)-5-methylmorpholin-3-one]
- IC50 (recombinant ASK1): < 0.1 µM
- IC50 (Human ASK1): > 0.1 µM

Compound: CC1COCCN1c1ccc(N2CCN(c3cccc(-c4nncn4C(C)C)n3)C2=O)cc1 (stereo not drawn) [Example 1069, 1-(6-(4-isopropyl-4H-1,2,4-triazol-3-yl)pyridin-2-yl)-3-(4-(3-methylmorpholino)phenyl)imidazolidin-2-one]
- IC50 (recombinant ASK1): < 0.1 µM
- IC50 (Human ASK1): > 0.1 µM
